# Key:
# [1] = target: T1, Glucocorticoid receptor (Homo sapiens) (UniProt P04150); assay: Transrepression activity at glucocorticoid receptor in human NHDF cells assessed as inhibition of IL-1beta-stimulated AP1 dependent IL-6 repression by ELISA relative to Dexamethasone; type: cell-based; set-up: concentration or dose not given beside the values
# T1 sequence (whole entry): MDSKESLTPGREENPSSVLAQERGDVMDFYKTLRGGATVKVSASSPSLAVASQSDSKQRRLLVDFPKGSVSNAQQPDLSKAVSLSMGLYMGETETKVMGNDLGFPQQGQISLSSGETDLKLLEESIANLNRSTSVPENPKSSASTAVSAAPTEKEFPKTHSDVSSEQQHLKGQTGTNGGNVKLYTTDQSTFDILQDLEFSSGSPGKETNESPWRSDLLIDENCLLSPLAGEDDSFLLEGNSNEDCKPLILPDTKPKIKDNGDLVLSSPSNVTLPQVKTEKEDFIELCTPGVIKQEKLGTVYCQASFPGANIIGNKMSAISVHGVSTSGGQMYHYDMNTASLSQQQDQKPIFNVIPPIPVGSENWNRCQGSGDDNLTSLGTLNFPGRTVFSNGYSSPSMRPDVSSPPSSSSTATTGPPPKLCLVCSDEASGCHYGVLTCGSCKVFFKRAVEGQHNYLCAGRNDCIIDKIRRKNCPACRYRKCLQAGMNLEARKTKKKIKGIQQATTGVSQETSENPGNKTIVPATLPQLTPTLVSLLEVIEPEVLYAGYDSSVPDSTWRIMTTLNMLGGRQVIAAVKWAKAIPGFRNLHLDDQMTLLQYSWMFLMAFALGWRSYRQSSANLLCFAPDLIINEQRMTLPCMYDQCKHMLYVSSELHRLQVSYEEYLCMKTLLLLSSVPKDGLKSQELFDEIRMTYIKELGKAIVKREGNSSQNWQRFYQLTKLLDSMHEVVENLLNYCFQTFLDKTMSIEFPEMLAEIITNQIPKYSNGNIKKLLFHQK
# Progesterone receptor = target: T2, Progesterone receptor (Homo sapiens, UniProt P06401); assay: Binding affinity to progesterone receptor
# T2 sequence (P06401 whole entry): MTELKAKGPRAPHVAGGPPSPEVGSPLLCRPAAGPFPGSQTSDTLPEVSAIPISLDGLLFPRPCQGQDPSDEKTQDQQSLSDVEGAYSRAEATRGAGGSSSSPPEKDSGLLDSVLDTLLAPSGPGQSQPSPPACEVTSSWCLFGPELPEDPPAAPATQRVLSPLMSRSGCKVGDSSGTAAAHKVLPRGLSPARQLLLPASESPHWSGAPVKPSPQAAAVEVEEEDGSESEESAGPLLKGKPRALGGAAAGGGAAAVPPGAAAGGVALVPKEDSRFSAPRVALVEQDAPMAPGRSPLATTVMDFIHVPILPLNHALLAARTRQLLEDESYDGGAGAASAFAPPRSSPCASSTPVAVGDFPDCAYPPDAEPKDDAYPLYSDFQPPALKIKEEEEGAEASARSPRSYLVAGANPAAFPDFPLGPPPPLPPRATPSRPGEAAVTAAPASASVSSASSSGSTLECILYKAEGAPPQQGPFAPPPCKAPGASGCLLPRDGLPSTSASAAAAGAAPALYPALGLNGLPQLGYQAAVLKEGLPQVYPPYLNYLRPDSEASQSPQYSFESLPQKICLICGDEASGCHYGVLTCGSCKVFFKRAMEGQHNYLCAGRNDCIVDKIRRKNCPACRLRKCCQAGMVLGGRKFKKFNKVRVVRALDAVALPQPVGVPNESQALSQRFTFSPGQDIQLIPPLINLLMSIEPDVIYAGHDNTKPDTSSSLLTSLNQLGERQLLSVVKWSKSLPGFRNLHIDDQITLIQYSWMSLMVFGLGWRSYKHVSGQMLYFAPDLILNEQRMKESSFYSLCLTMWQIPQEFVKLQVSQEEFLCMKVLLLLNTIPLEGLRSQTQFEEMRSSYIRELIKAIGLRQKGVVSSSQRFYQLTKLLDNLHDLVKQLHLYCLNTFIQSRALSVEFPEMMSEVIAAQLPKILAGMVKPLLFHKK
# [2] = target: T1, Glucocorticoid receptor (Homo sapiens); assay: Transrepression activity at glucocorticoid receptor in human HepG2 cells assessed as inhibition of TNFalpha/IL1beta-stimulated NFkappaB-dependent E-selectin repression by luciferase reporter gene assay relative to Dexamethasone; type: cell-based; set-up: scale not given: the % may be the effect or the level left
# [3] = target: T1, Glucocorticoid receptor (Homo sapiens); assay: Agonist activity at glucocorticoid receptor in human HepG2 cells co-transfected with PEPCK assessed as GRE activation by luciferase reporter gene assay relative to Dexamethasone; type: functional, cell-based
# Glucocorticoid receptor [4] = target: T3, Glucocorticoid receptor (Homo sapiens, UniProt P04150); assay: Agonist activity at glucocorticoid receptor in human HepG2 cells co-transfected with PEPCK assessed as GRE activation by luciferase reporter gene assay; type: functional, cell-based
# T3 sequence (P04150 whole entry): T1 sequence (whole entry)
# Glucocorticoid receptor [5] = target: T3, Glucocorticoid receptor; assay: Agonist activity at glucocorticoid receptor in human HepG2 cells co-transfected with GRE assessed as GRE activation by luciferase reporter gene assay; type: functional, cell-based
# Glucocorticoid receptor [6] = target: T3, Glucocorticoid receptor; assay: Transrepression activity at glucocorticoid receptor in human NHDF cells assessed as inhibition of IL-1beta-stimulated AP1 dependent IL-6 repression by ELISA; type: cell-based
# Glucocorticoid receptor [7] = target: T3, Glucocorticoid receptor; assay: Transrepression activity at glucocorticoid receptor in human HepG2 cells assessed as inhibition of TNFalpha/IL1beta-stimulated NFkappaB-dependent E-selectin repression by luciferase reporter gene assay; type: cell-based
# [8] = target: T1, Glucocorticoid receptor (Homo sapiens); assay: Agonist activity at glucocorticoid receptor in human HepG2 cells co-transfected with GRE assessed as GRE activation by luciferase reporter gene assay relative to Dexamethasone; type: functional, cell-based; set-up: concentration or dose not given beside the values
# Glucocorticoid receptor [9] = target: T3, Glucocorticoid receptor; assay: Displacement of radiolabeled Dexamethasone from glucocorticoid receptor expressed in baculovirus
SMILES,Activity [1] [%],Ki (Progesterone receptor) [nM],Activity [2] [%],Activity [3] [%],EC50 (Glucocorticoid receptor [4]) [nM],EC50 (Glucocorticoid receptor [5]) [nM],IC50 (Glucocorticoid receptor [6]) [nM],IC50 (Glucocorticoid receptor [7]) [nM],Activity [8] [%],Ki (Glucocorticoid receptor [9]) [nM]
CC1(C)C/C(=N\OC(C)(C)C)c2c(cc(F)c(-c3cccc4c(Cl)c[nH]c34)c2F)N1,83,570,94,27,67,3.4,19,4,97,2
Cc1c[nH]c2c(-c3c(F)cc4c(c3F)/C(=N/OC(C)(C)C)CC(C)(C)N4)cccc12,73,220,91,28,70,5,13,5.6,97,2.2
CO/N=C1/c2c(cc(F)c(-c3cccc4c(C)c[nH]c34)c2F)NC(C)(C)C1O (racemic),98,3800,96,79,560,3.9,17,3.4,150,3.8
Cc1c[nH]c2c(-c3c(F)cc4c(c3F)/C(=N/OC(C)(C)CO)CC(C)(C)N4)cccc12,67,950,91,22,350,19,65,12,130,0.8
Cc1c[nH]c2c(-c3c(F)cc4c(c3F)/C(=N/OC(C)C)CC(C)(C)N4)cccc12,77,380,90,35,250,0.6,11,4.9,138,2.7

# — ChEMBL document CHEMBL1759905, “Nonsteroidal 2,3-dihydroquinoline glucocorticoid receptor agonists with reduced PEPCK activation” (Bioorg Med Chem Lett, 2011)
